Data as given in the supplement of paper PMC11208160.

Assay: recombinant UMI read abundance after kanamycin selection (control-corrected) (log10(CPM+1)); higher = more efficient recombination; extreme values may be limits of the assay; sequences stand for … in AGTGCAGAGAAAATCGGCCAGTTTTCTCTGCCTGCAGTCCGCATGCCGTGGGACCCCTTGGGTTCTAACCTGTTGCCTAGATTTATGCAGCGGACTGCCTTTCTCCCAAAGTGATAAACCGG…AGGTTGGTTTCACT; site = the 11-nt donor
Method in brief: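 In a pooled Escherichia coli screen for the IS621 bridge recombinase, donor and donor-binding-loop pairs were each placed with a 12-nt UMI on a plasmid bearing a promoterless kanamycin gene. This library was co-electroporated with a target plasmid encoding a fixed target and T7-inducible recombinase, and cells were plated either on IPTG (0.07 mM) plus kanamycin or without selection, in two replicates each. Recombinant UMIs were PCR-amplified across the donor–target junction and sequenced, and counts were converted to CPM, averaged over replicates, scaled by control-derived factors and reported as log10(CPM+1).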
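Further: IS621 bridge recombinase in Escherichia coli cells against a fixed T5 target plasmid.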

Sequence | recombinant UMI read abundance (log10)
TAGTTAGCATGGACCGGTTTTCCCGGTAATCCGTATTTGAA (site TAGATAGCTTT) | 0.0157
TAGTTAGCATGGACCGGTTTTCCCGGTAATCCGTATTTGAA (site TAGCTAGCTTT) | 0.407
TAGTTAGCATGGACCGGTTTTCCCGGTAATCCGTATTTGAA (site TAGGTAGCTTT) | 0.00722
TAGTTAGCATGGACCGGTTTTCCCGGTAATCCGTATTTGAA (site TAGTTAGCTTT) | 1.33
TATAACTCATGGACCGGTTTTCCCGGTAATCCGTATTTGGC (site TATAACTCTGC) | 1.35
TATACACCATGGACCGGTTTTCCCGGTAATCCGTATTTGAC (site TATACACCTGT) | 0
TATACACCATGGACCGGTTTTCCCGGTAATCCGTATTTGAC (site TCTACACCTGT) | 0.0077
TATACACCATGGACCGGTTTTCCCGGTAATCCGTATTTGAC (site TGTACACCTGT) | 0
TATACACCATGGACCGGTTTTCCCGGTAATCCGTATTTGAC (site TTTACACCTGT) | 0
TATATCTCATGGACCGGTTTTCCCGGTAATCCGTATTTGAA (site TATATCTCTTT) | 0.835
TATATCTCATGGACCGGTTTTCCCGGTAATCCGTATTTGTA (site TATATCTCTTA) | 1.93
TATCCTCCATGGACCGGTTTTCCCGGTAATCCGTATTTGTT (site TATCCTCCTAA) | 0.0195
TATCCTTCATGGACCGGTTTTCCCGGTAATCCGTATTTGGT (site TAACCTTCTAC) | 0.00593
TATCCTTCATGGACCGGTTTTCCCGGTAATCCGTATTTGGT (site TACCCTTCTAC) | 0.0066
TATCCTTCATGGACCGGTTTTCCCGGTAATCCGTATTTGGT (site TAGCCTTCTAC) | 0.0208
TATCCTTCATGGACCGGTTTTCCCGGTAATCCGTATTTGGT (site TATCCTTCTAC) | 0.31
TATCGATCATGGACCGGTTTTCCCGGTAATCCGTATTTGAC (site TATCGATCTGT) | 1.86
TATCTAGCATGGACCGGTTTTCCCGGTAATCCGTATTTGAA (site TAACTAGCTTT) | 0.0105
TATCTAGCATGGACCGGTTTTCCCGGTAATCCGTATTTGAA (site TACCTAGCTTT) | 0.131
TATCTAGCATGGACCGGTTTTCCCGGTAATCCGTATTTGAA (site TAGCTAGCTTT) | 0.00935
TATCTAGCATGGACCGGTTTTCCCGGTAATCCGTATTTGAA (site TATCTAGCTTT) | 0.502
TATCTATCATGGACCGGTTTTCCCGGTAATCCGTATTTGTC (site TATCTATCTGA) | 1.59
TATCTCGCATGGACCGGTTTTCCCGGTAATCCGTATTTGCA (site TATCTCGCTTG) | 0.374
TATCTGGCATGGACCGGTTTTCCCGGTAATCCGTATTTGTG (site TATATGGCTCA) | 0.0189
TATCTGGCATGGACCGGTTTTCCCGGTAATCCGTATTTGTG (site TATCTGGCTCA) | 0.0196
TATCTGGCATGGACCGGTTTTCCCGGTAATCCGTATTTGTG (site TATGTGGCTCA) | 0.00259

Sequence | recombinant UMI read abundance (log10)
TATCTGGCATGGACCGGTTTTCCCGGTAATCCGTATTTGTG (site TATTTGGCTCA) | 0.00973
TATGCGGCATGGACCGGTTTTCCCGGTAATCCGTATTTGAT (site TATGCGGCTAT) | 0.581
TATGCTACATGGACCGGTTTTCCCGGTAATCCGTATTTGGC (site TATGCTACTGC) | 0.253
TATGGGCCATGGACCGGTTTTCCCGGTAATCCGTATTTGCT (site TATGGGCCTAG) | 0
TATGGTACATGGACCGGTTTTCCCGGTAATCCGTATTTGGC (site TATGGTACTGC) | 1.67
TATGTACCATGGACCGGTTTTCCCGGTAATCCGTATTTGGT (site TATGTACCTAC) | 0.011
TATGTCTCATGGACCGGTTTTCCCGGTAATCCGTATTTGCC (site TATGTCTCTGG) | 2.6
TATTAGGCATGGACCGGTTTTCCCGGTAATCCGTATTTGTG (site TATTAGGCTCA) | 0.459
TATTAGGCATGGACCGGTTTTCCCGGTAATCCGTATTTGTG (site TATTCGGCTCA) | 0.00717
TATTAGGCATGGACCGGTTTTCCCGGTAATCCGTATTTGTG (site TATTGGGCTCA) | 0
TATTAGGCATGGACCGGTTTTCCCGGTAATCCGTATTTGTG (site TATTTGGCTCA) | 0.0156
TATTATCCATGGACCGGTTTTCCCGGTAATCCGTATTTGCT (site AATTATCCTAG) | 0.494
TATTATCCATGGACCGGTTTTCCCGGTAATCCGTATTTGCT (site CATTATCCTAG) | 0
TATTATCCATGGACCGGTTTTCCCGGTAATCCGTATTTGCT (site GATTATCCTAG) | 0
TATTATCCATGGACCGGTTTTCCCGGTAATCCGTATTTGCT (site TATTATCCTAG) | 0.622
TATTATGCATGGACCGGTTTTCCCGGTAATCCGTATTTGGA (site AATTATGCTTC) | 0.364
TATTATGCATGGACCGGTTTTCCCGGTAATCCGTATTTGGA (site CATTATGCTTC) | 0.525
TATTATGCATGGACCGGTTTTCCCGGTAATCCGTATTTGGA (site GATTATGCTTC) | 0.00418
TATTATGCATGGACCGGTTTTCCCGGTAATCCGTATTTGGA (site TATTATGCTTC) | 0.177
TATTCGCCATGGACCGGTTTTCCCGGTAATCCGTATTTGGG (site TATTCGCCTCC) | 0.0547
TATTGACCATGGACCGGTTTTCCCGGTAATCCGTATTTGCG (site TATTGACCTCG) | 0.00685
TATTGGACATGGACCGGTTTTCCCGGTAATCCGTATTTGAC (site AATTGGACTGT) | 0
TATTGGACATGGACCGGTTTTCCCGGTAATCCGTATTTGAC (site CATTGGACTGT) | 0.701
TATTGGACATGGACCGGTTTTCCCGGTAATCCGTATTTGAC (site GATTGGACTGT) | 0.0156
TATTGGACATGGACCGGTTTTCCCGGTAATCCGTATTTGAC (site TATTGGACTGT) | 1.68
TATTTCCCATGGACCGGTTTTCCCGGTAATCCGTATTTGTG (site TATTTCCCTCA) | 0.213
